This is an account of results in PMC3486876 (PLoS Neglected Tropical Diseases, 2012).

This data set can be described thus: Drug concentration in plasma and brain (HPLC) in Mdr1ab(−/−) mice. The conditions noted are these: 0.23 µmol/kg SC. Format: in vivo, mouse. How it is done:
For drug plasma concentration and brain accumulation assessment, Mdr1ab(−/−) mice were injected subcutaneously with an equivalent molar dose rate for both MLs in Mdr1ab(−/−) mice (6 animals per group): 0.23 µmol/kg, corresponding to 0.20 mg/kg and 0.15 mg/kg for IVM and MOX, respectively. Mice were sacrificed at 2 or 24 h after treatment.
Mice were anesthetized 2 h or 24 h after administration with isoflurane and heparinized blood samples were collected from the orbital sinus vein. Immediately thereafter, mice were sacrificed by cervical dislocation and brains were rapidly removed. Blood samples were centrifuged at 1500 g for 10 min at 4°C and the plasma fraction was collected and stored at −20°C until analysis. The brains were washed in saline solution and frozen at −20°C until analysis.
ML concentrations were determined in plasma and brain by high performance liquid chromatography (HPLC) with fluorescence detection according to previously described and validated methods, [25]. In brief, plasma and tissues were homogenised in acetonitrile (1∶1 v/v or 1∶2 v/w, respectively). Samples were centrifuged at 2000 g and the supernatant applied to a Supelco C18 cartridge (Supelco Inc., Bellefonte, PA, USA) by using automated solid phase extraction (SPE). […] The eluate was evaporated and the dry extract was processed to obtain a fluorophore derivative by dissolving it in 1N-methylimidazole and trifluoroacetic anhydride solutions. Samples were injected into the HPLC system (PU980 pump, Jasko, Tokyo, Japan; 360 automatic injector, Kontron, Paris, France; RF-551 fluorescence detector, Shimadzu, Kyoto, Japan). For IVM and MOX a Supelcosil LC18 column (250×4.6 mm, 5 µm, Supelco, Bellefonte, PA, USA) was used with acetic acid (0.2% in water)∶methanol∶acetonitrile (4∶40∶56, v/v/v) as mobile phase.

SMILES strings stand for the structures.

As to `CO/N=C1\C[C@]2(C[C@@H]3C[C@@H](C/C=C(\C)C[C@@H](C)/C=C/C=C4\CO[C@@H]5[C@H](O)C(C)=C[C@@H](C(=O)O3)[C@]45O)O2)O[C@H](/C(C)=C/C(C)C)[C@H]1C` [Moxidectin], the Brain-to-plasma concentration ratio reads like this: (2 h) 0.3 ± 0.1 mL/g; (24 h) 2.2 ± 0.7 mL/g; (24 h, listed as MOX) 2.2 ± 0.7 mL/g. Also, the “Drug concentration in brain” value by setting is: (2 h) 18.8 ± 2.8 pmol/g; (2 h, listed as MOX) 18.8 ± 2.8 pmol/g; (24 h) 93.0 ± 28.9 pmol/g. For the same compound, the “Drug concentration in plasma” value (24 h) came out at 42.8 ± 9.3 nM. The compound also came in with a concentration at 2 h (mouse, plasma, 2 h) of 60 ± 14.5 nM. The compound also gave a concentration at 24 h (mouse, plasma, 24 h) of 42.8 ± 9.3 nM.
